Assay results taken from patent US9440990B2, “1-arylcarbonyl-4-oxy-piperidine compounds useful for the treatment of neurodegenerative diseases” (TAKEDA PHARMACEUTICAL COMPANY LIMITED, priority 2011, dated 2016).

tested on: APP/PS1 double transgenic mouse; experiment: Y-maze test using APP/PS1 double transgenic mouse; assay type: in vivo; details: 10 mg/kg orally once a day, 16 hours after the 13th administration
Protocol: Animals used were 3-month-old female APP/PS1 double transgenic mice (10-15 mice/group). A test compound was suspended in a 0.5% aqueous methylcellulose [133-14255 WAKO] solution (1 mg/mL). The body weight of the mice was measured, and the solution was forcibly administered orally and repeatedly once a day for 14 days. At 16 hours after the 13th administration, spontaneous alternation behavior in Y-maze test was evaluated. Using a particular arm of a Y-shaped test apparatus as the starting point, the frequency of moving to a different arm was counted for 5 min. The first two times of entry were excluded from the total number of entry. In addition, the mice that entered less than 10 times in total were excluded. Movement to an arm different from the arm into which the mouse entered last but one was considered an alternation behavior, and the ratio to the total number of moving was calculated as a spontaneous alternation behavior rate. As comparison subjects, a control group (test compound-non treatment group) and a control group in wild-type mice were used.

Compound | Spontaneous alternation behavior rate (%)
O=C(c1cccnc1-c1ccncc1)N1CCC(O)(Cc2ccccc2)CC1 [Example 44, (4-benzyl-4-hydroxypiperidin-1-yl) (2,4′-bipyridin-3-yl)methanone] | 71%

same assay, conditions: 30 mg/kg orally once a day, 16 hours after the 13th administration

Compound | Spontaneous alternation behavior rate (%)
O=C(c1cccnc1-c1ccncc1)N1CCC(O)(Cc2ccccc2)CC1 [Example 44, (4-benzyl-4-hydroxypiperidin-1-yl) (2,4′-bipyridin-3-yl)methanone] | 71%

tested on: 24-HC in the brain; experiment: Quantification test of 24-HC in mouse brain after repeated oral administration; assay type: in vivo; details: brain 24-HC; female C57BL/6N mice; 10 mg/kg orally once a day for 3 days; 16 hours after the third administration; relative to control group as 100%
Protocol: Animals used were 6-week-old female C57BL/6N mice (3 mice/group). A test compound was suspended in a 0.5% aqueous methylcellulose [133-14255 WAKO] solution (1 mg/mL). The body weight of the mice was measured, and the solution was forcibly administered orally and repeatedly once a day for 3 days. At 16 hours after the third administration, half of the brain was recovered, and the amount of 24-HC was measured.
The wet weight of the brain was measured, and the brain was homogenized with about 4-fold amount (0.5 mL) of saline. This solution was used as a brain extract. 24-HC in the brain extract was extracted with an acetonitrile solution (98% acetonitrile, 1.98% methanol, 0.02% formic acid), and quantified by HPLC. The average value of 24-HC amount was calculated and the results are shown in relative values with the control group as 100%.

Compound | decrease rate (%) at 10 mg/kg
O=C(c1ccccc1-c1ccncn1)N1CCC(O)(Cc2ccccc2)CC1 [Example 14, (4-benzyl-4-hydroxypiperidin-1-yl) (2-(pyrimidin-4-yl)phenyl)methanone] | 67%
O=C(c1ccc(F)cc1-c1ccncc1)N1CCC(O)(Cc2ccccn2)CC1 [Example 30, (4-fluoro-2-(pyridin-4-yl)phenyl) (4-hydroxy-4-(pyridin-2-ylmethyl)piperidin-1-yl)methanone] | 87%
O=C(c1cccnc1-c1ccncn1)N1CCC(O)(Cc2ccccc2)CC1 [Example 54, (4-benzyl-4-hydroxypiperidin-1-yl) (2-(pyrimidin-4-yl)pyridin-3-yl)methanone] | 64%
Cc1nc(-c2ccncn2)c(C(=O)N2CCC(O)(Cc3ccc(F)cc3)CC2)s1 [Example 62, (4-(4-fluorobenzyl)-4-hydroxypiperidin-1-yl) (2-methyl-4-(pyrimidin-4-yl)-1,3-thiazol-5-yl)methanone] | 71%
O=C(c1cccnc1-c1ccncc1)N1CCC(O)(Cc2ccc(F)cc2)CC1 [Example 67, 2,4′-bipyridin-3-yl (4-(4-fluorobenzyl)-4-hydroxypiperidin-1-yl)methanone] | 43%
N#Cc1ccc(CC2(O)CCN(C(=O)c3cccnc3-c3ccncc3)CC2)cc1 [Example 70, 4-((1-(2,4′-bipyridin-3-ylcarbonyl)-4-hydroxypiperidin-4-yl)methyl)benzonitrile] | 60%
O=C(c1cccnc1-c1ccncc1)N1CCC(O)(Cc2ccc(F)cc2F)CC1 [Example 87, 2,4′-bipyridin-3-yl (4-(2,4-difluorobenzyl)-4-hydroxypiperidin-1-yl)methanone] | 37%
O=C(c1cccnc1-c1ccncn1)N1CCC(O)(Cc2ccc(F)cc2)CC1 [Example 92, (4-(4-fluorobenzyl)-4-hydroxypiperidin-1-yl) (2-(pyrimidin-4-yl)pyridin-3-yl)methanone] | 60%
O=C(c1cccnc1-c1ccncn1)N1CCC(O)(Cc2ccc(F)cc2F)CC1 [Example 105, (4-(2,4-difluorobenzyl)-4-hydroxypiperidin-1-yl) (2-(pyrimidin-4-yl)pyridin-3-yl)methanone] | 40%
